Converted amounts (≈) assume the structure as drawn. The source made the active and inactive calls. The rule behind the calls is not given here.
Assays:
[1] = molecular target: Matrix metalloproteinase-9 (Homo sapiens, UniProt P14780); test: Inhibition of proMMP-9 (unknown origin)
[2] = Solubility of compound; format: physicochemical
[3] = molecular target: Stromelysin-1 (Homo sapiens) (UniProt P08254); test: Inhibition of MMP-3 catalytic activity (unknown origin)
Collagenase 3 = Collagenase 3 (Homo sapiens, UniProt P45452); test: Inhibition of proMMP-13 (unknown origin)
[4] = molecular target: 72 kDa type IV collagenase (Homo sapiens, UniProt P08253); test: Inhibition of proMMP-2 (unknown origin)
72 kDa type IV collagenase, sequence (P08253 whole entry): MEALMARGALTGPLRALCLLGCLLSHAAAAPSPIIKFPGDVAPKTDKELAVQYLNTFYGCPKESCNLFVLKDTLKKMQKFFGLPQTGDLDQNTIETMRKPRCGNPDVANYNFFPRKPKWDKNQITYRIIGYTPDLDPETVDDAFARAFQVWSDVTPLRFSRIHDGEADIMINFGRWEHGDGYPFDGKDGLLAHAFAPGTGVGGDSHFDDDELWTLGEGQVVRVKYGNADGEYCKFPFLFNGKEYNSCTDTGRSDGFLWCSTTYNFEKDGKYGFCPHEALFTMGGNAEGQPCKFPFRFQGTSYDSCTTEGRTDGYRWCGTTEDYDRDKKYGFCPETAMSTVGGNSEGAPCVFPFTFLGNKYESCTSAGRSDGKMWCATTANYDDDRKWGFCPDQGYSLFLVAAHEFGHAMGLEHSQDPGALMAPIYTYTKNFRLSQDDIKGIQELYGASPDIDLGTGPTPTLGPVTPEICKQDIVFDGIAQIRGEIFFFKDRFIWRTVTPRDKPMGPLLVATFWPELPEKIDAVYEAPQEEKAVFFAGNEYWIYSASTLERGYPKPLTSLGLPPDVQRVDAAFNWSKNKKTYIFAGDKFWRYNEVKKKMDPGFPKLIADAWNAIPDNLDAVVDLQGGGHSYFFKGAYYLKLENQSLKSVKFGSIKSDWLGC

Matrix metalloproteinase-9, sequence (P14780 whole entry): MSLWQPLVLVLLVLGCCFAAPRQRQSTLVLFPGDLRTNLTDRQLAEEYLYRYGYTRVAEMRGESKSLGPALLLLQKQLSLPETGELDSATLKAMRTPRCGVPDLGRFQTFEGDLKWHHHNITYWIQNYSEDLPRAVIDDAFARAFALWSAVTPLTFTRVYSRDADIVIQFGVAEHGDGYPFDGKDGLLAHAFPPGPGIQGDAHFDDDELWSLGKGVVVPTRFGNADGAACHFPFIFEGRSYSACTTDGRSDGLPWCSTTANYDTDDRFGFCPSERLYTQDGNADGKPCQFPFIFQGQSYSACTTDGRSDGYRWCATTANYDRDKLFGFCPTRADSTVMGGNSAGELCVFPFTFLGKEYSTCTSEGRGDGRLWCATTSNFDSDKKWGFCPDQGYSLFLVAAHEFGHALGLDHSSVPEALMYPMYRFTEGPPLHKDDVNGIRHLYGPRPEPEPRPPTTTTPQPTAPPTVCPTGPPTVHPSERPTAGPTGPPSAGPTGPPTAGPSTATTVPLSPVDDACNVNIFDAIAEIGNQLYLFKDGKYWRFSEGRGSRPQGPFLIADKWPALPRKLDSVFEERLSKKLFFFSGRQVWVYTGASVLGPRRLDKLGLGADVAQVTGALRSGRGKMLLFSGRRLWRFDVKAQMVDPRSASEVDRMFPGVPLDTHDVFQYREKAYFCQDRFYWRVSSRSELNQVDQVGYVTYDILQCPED
Stromelysin-1 (Homo sapiens), sequence (P08254 100-477 limits assumed): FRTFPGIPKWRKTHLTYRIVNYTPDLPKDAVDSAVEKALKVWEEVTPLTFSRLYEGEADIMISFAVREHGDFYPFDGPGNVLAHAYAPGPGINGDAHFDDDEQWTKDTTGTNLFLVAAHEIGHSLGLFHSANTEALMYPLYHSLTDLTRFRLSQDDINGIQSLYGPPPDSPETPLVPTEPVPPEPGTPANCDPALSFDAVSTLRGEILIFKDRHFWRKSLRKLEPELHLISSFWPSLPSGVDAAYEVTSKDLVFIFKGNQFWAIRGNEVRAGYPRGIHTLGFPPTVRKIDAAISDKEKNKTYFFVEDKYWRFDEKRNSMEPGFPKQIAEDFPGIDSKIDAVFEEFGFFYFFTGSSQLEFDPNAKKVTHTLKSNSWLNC

Compound	IC50 [1] [µM]	solubility [2] [µg/mL]	inhibition [3]	IC50 (Collagenase 3) [µM]	IC50 [4] [µM]
O=C(c1cc2ccc(C3CC3)cc2[nH]1)N1CCc2cnccc2C1	> 50	–	–	–	–
CCc1ccc2cc(C(=O)N3CCCc4cnccc4C3)[nH]c2c1	0.12	0.8 (≈ 2.5 µM)	–	–	–
CNc1cc(F)cc2cc(C(=O)N3CCc4ccc(C(=O)NCCN5CCCC5)cc4C3)[nH]c12	2.6	–	inactive	–	–
CCc1cccc2c(C(=O)N3CCc4ocnc4C3)n[nH]c12	8.5	–	inactive	–	–
CC(C)(O)c1ccc2cc(C(=O)N3CCCc4cnccc4C3)[nH]c2c1	0.58	> 35	–	–	–
CC(C)(C)c1ccc2cc(C(=O)N3CCCc4cnccc4C3)[nH]c2c1	0.11	1.3 (≈ 3.74 µM)	–	–	–
CC(C)(O)c1ccc2cc(C(=O)N3CCCc4cnc(N)c(F)c4C3)[nH]c2c1	0.044	–	–	> 30	> 30
O=C(c1cc2ccc(C3CC3)cc2[nH]1)N1CCCc2cnccc2C1	0.081	8.6 (≈ 25.9 µM)	–	–	–
O=C(c1cc2ccc(CCO)cc2[nH]1)N1CCCc2cnccc2C1	1.1	> 33	–	–	–
O=C(c1cc2ccc(C3CC3)cc2[nH]1)N1CCc2ocnc2C1	1.1	–	–	–	–
O=C(c1cc2ccc(C3CC3)cc2[nH]1)N1CCc2ccccc2C1	> 50	–	–	–	–
O=C(c1cc2ccc(C3CCC3)cc2[nH]1)N1CCCc2cnccc2C1	0.12	0.4 (≈ 1.16 µM)	–	–	–
O=C(NCCN1CCCC1)c1ccc2c(c1)CN(C(=O)c1cc3c(F)cc(C4CC4)cc3[nH]1)CC2	1	–	–	–	–
C[C@]1(O)C[C@@H](c2ccc3cc(C(=O)N4CCCc5cnccc5C4)[nH]c3c2)C1	0.16	3 (≈ 7.99 µM)	–	–	–
